The values below are quoted from earlier work in US20160375234A1, “[…] METHODS AND COMPOSITIONS FOR DIAGNOSING AND TREATING BREAST CONDITIONS” (ATOSSA GENETIC INC., priority 2014, published 2016).

Each structure is given as a SMILES string.

The subject of this data set is early-stage, HER2-overexpressing or -amplified breast cancer. Conditions: patients with early-stage, presurgical.

Take `CS(=O)(=O)CCNCc1ccc(-c2ccc3ncnc(Nc4ccc(OCc5cccc(F)c5)c(Cl)c4)c3c2)o1` [lapatinib]: the “growth of breast premalignancy (including ADH and DCIS) and invasive cancer” value is given as “suppressed growth”.
